# Values of other authors as cited in patent publication US20240343692A1 (priority 2021, published 2024).
# Like-named read-outs stand apart in the source and are kept apart here. Marks after values point to notes of the source that are not given here.
# Legend:
# Adrenergic α1 = settings: 10 μM; rat receptor data; data from ref. 35; cited from earlier work
# Dopamine D1 = Dopamine D1 (Homo sapiens, UniProt P21728); settings: 10 μM; data from ref. 34; cited from earlier work
# Dopamine D2L = Dopamine D2L (Homo sapiens, UniProt P14416); settings: 10 μM; data from ref. 34; cited from earlier work
# Dopamine D2L, sequence (P14416 whole entry): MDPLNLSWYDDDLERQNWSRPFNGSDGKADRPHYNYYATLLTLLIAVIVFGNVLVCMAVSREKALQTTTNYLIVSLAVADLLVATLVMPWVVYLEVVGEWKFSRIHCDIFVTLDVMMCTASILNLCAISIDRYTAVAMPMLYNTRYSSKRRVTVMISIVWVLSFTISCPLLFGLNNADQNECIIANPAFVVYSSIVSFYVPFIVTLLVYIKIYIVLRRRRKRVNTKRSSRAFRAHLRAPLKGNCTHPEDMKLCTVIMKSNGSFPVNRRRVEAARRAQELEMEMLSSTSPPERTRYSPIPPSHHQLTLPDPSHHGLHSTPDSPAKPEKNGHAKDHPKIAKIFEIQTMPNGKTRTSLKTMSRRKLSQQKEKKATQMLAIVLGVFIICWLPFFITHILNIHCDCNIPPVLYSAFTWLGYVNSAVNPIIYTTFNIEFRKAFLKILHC
# Dopamine D3 = Dopamine D3 (Homo sapiens, UniProt P35462); settings: 10 μM; data from ref. 34; cited from earlier work
# Dopamine D3, sequence (P35462 whole entry): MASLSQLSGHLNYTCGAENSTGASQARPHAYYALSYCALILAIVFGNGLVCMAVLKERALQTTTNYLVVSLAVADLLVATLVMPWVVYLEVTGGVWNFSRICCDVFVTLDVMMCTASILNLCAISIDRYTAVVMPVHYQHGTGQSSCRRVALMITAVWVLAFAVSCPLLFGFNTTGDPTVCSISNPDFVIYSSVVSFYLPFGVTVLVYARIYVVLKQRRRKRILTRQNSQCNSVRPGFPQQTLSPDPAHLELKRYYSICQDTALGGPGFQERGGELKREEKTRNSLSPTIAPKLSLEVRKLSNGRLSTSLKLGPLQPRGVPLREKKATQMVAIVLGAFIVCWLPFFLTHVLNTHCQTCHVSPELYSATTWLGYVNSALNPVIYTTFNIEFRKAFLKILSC
# GABAA = settings: 10 μM; rat receptor data; data from ref. 34; cited from earlier work
# Muscarinic M2 = target: T1, Muscarinic M2 (Homo sapiens, UniProt P08172); settings: 10 μM; data from ref. 34; cited from earlier work
# T1 sequence (P08172 1-466): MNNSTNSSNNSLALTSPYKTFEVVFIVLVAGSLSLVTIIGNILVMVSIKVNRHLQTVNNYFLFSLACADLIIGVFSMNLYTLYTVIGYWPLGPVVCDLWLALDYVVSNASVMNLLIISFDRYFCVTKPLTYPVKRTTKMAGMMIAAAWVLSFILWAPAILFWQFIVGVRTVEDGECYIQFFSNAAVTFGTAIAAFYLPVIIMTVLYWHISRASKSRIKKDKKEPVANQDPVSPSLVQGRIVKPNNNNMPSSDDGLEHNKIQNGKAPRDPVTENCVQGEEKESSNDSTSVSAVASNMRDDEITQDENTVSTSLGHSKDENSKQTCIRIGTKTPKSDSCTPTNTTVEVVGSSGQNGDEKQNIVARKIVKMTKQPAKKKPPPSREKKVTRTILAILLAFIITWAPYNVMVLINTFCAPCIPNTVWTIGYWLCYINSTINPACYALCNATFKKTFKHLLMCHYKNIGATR
# Muscarinic M5 = target: T2, Muscarinic M5 (Homo sapiens, UniProt P08912); settings: 10 μM; data from ref. 34; cited from earlier work
# T2 sequence (P08912 1-532): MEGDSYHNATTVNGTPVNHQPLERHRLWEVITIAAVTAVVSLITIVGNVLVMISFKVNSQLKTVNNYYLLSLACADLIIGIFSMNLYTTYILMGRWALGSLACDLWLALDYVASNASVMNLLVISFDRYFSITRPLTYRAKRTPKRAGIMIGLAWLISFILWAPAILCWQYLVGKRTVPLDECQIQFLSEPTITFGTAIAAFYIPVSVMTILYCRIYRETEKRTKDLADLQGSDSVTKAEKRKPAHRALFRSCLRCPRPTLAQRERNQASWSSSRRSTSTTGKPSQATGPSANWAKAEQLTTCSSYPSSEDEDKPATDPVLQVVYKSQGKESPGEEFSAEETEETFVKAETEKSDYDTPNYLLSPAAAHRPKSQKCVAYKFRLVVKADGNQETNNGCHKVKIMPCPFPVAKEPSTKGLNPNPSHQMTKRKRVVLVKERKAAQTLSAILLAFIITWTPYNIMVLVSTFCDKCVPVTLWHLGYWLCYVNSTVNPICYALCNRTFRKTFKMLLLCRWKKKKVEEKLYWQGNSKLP
# [1] = target: Nicotinic Acetylcholine α4β2 (Homo sapiens, UniProt P17787+P43681); settings: 10 μM; data from ref. 34; cited from earlier work
# Nicotinic Acetylcholine α4β2, sequence (P43681 29-627 limits assumed): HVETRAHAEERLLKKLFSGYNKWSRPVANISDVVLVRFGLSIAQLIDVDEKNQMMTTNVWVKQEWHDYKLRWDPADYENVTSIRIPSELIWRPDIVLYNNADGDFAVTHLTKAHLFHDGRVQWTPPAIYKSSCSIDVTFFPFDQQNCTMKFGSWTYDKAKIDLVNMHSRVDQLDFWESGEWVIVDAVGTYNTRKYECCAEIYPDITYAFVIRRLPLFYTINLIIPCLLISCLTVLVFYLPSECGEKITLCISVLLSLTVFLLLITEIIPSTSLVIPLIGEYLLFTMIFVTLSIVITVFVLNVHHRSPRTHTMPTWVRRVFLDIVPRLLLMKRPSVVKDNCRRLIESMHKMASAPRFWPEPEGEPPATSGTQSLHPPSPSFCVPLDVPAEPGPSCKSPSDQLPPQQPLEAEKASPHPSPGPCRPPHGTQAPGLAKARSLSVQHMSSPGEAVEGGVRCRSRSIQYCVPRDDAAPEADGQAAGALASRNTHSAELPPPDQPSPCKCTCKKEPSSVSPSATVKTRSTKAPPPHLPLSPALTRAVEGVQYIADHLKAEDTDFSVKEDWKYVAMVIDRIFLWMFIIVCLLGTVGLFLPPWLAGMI
# Nicotinic Acetylcholine α4β2, sequence (P17787 26-502): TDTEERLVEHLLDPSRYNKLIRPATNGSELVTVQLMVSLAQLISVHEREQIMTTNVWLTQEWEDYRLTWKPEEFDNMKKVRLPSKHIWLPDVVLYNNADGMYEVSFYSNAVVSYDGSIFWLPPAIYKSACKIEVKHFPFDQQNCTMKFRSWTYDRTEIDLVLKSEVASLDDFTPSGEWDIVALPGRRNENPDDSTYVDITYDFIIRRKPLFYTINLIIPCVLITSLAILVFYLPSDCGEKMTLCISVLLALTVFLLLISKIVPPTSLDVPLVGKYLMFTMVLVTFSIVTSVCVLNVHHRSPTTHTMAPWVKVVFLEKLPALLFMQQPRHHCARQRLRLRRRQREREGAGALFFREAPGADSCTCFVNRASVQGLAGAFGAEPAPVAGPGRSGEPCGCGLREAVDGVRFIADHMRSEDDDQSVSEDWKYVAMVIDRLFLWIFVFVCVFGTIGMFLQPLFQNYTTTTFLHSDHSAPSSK
# Opiate κ = Opiate κ (Homo sapiens, UniProt P41145); settings: 10 μM; data from ref. 34; cited from earlier work
# Opiate κ, sequence (P41145 whole entry): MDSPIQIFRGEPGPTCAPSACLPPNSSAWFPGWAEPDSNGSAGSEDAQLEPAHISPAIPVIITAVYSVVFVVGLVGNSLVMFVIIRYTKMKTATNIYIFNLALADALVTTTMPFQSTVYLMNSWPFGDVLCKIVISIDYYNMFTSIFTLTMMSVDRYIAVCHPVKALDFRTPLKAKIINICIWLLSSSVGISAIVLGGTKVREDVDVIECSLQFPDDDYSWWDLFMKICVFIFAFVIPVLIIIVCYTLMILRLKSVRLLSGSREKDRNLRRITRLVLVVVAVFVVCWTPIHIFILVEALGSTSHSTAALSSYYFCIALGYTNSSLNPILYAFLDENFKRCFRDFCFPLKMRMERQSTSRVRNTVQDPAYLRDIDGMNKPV
# Serotonin 5-HT2A [2] = target: T3, Serotonin 5-HT2A (Homo sapiens, UniProt P28223); settings: 10 μM; data from ref. 34; cited from earlier work
# T3 sequence (P28223 whole entry, looked up): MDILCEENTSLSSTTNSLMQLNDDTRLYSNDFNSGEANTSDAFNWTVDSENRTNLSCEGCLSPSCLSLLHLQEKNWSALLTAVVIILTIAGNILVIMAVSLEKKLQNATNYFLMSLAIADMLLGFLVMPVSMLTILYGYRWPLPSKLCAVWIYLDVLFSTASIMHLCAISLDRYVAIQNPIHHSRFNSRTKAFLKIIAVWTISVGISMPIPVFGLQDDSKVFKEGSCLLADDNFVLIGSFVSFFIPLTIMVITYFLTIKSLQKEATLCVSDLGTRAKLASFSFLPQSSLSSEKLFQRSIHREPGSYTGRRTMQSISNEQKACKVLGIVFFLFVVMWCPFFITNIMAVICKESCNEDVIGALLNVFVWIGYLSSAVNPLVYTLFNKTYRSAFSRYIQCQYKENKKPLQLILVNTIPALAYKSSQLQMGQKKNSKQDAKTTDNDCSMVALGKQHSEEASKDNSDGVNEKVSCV
# Serotonin 5-HT2A [3] = target: T3, Serotonin 5-HT2A; settings: data from ref. 36; read-out: activation potency EC50, Serotonin 5-HT2A; cited from earlier work
# Sigma-1 = Sigma-1 (Homo sapiens, UniProt Q99720)
# Sigma-1, sequence (Q99720 whole entry): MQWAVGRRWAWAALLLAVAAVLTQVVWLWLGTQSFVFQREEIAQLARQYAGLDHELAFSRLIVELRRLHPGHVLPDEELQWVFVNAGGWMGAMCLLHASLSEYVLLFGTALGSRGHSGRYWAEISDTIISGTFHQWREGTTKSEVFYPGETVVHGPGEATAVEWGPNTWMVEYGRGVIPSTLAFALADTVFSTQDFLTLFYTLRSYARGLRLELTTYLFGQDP
# Serotonin 5-HT1A = target: T4, Serotonin 5-HT1A (Homo sapiens, UniProt P08908); settings: read-out: inhibition constants Ki, Serotonin 5-HT1A; data from ref. 36; cited from earlier work
# T4 sequence (P08908 1-422): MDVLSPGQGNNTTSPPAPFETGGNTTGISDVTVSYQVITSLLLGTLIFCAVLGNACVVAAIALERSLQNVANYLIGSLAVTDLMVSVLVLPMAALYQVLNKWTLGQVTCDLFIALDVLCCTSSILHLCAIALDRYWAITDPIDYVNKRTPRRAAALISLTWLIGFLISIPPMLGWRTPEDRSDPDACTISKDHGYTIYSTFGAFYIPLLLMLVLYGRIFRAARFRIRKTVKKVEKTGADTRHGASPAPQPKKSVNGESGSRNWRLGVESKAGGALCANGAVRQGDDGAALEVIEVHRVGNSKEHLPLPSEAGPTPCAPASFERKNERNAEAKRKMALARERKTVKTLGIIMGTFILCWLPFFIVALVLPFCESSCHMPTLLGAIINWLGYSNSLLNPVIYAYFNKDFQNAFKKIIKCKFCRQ
# Dopamine D1, sequence (P21728 whole entry): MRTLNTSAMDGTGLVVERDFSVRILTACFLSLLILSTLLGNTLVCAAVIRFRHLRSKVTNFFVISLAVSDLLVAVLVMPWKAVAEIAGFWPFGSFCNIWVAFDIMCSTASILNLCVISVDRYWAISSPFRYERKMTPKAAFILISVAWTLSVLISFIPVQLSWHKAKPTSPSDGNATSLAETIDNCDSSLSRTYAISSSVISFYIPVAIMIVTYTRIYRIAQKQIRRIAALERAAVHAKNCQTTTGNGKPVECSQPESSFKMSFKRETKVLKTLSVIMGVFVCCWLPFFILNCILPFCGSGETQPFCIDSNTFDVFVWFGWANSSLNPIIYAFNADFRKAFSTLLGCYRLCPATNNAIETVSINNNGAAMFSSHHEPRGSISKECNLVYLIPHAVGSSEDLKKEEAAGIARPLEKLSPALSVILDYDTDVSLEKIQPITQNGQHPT
smiles,measurement,setting,value
"CCN(CC)C(=O)[C@@H]1C=C2c3cccc4[nH]cc(c34)C[C@H]2N(C)C1 [D-LSD, D-lysergic acid diethylamide]","Percent Inhibition of Specific Binding of a Radioligand Standard, Adrenergic α1",Adrenergic α1,100^d % inh
same,"Percent Inhibition of Specific Binding of a Radioligand Standard, Dopamine D1",Dopamine D1,93 % inh
same,"Percent Inhibition of Specific Binding of a Radioligand Standard, Dopamine D2L",Dopamine D2L,85 % inh
same,"Percent Inhibition of Specific Binding of a Radioligand Standard, Dopamine D3",Dopamine D3,78 % inh
same,"Percent Inhibition of Specific Binding of a Radioligand Standard, GABAA",GABAA,0 % inh
same,"Percent Inhibition of Specific Binding of a Radioligand Standard, Muscarinic M2",Muscarinic M2,2 % inh
same,"Percent Inhibition of Specific Binding of a Radioligand Standard, Muscarinic M5",Muscarinic M5,15 % inh
same,"Percent Inhibition of Specific Binding of a Radioligand Standard, Nicotinic Acetylcholine α4β2",[1],0 % inh
same,"Percent Inhibition of Specific Binding of a Radioligand Standard, Opiate κ",Opiate κ,29 % inh
same,"Percent Inhibition of Specific Binding of a Radioligand Standard, Serotonin 5-HT2A",Serotonin 5-HT2A [2],93 % inh
CN(C)CCc1c[nH]c2ccccc12 [DMT],EC50,Serotonin 5-HT2A [3],76 nM
same,Ki,"Sigma-1; data from ref. 37; read-out: inhibition constants Ki, Sigma-1; cited from earlier work",5200 nM
CN(C)CCc1c[nH]c2cccc(O)c12 [Psilocin],Ki,Serotonin 5-HT1A,123 nM
same,Ki,"Sigma-1; read-out: inhibition constants Ki, Sigma-1; data from ref. 37; cited from earlier work",> 10000 nM
